{
  "source": "patent US20090246240A1",
  "about": "“DRY BACTERICIDAL NONWOVEN WIPE” (priority 2008, published 2009)",
  "key": {"Staphylococcus aureus": {"test_system": "Staphylococcus aureus", "test": "AATCC Test Method 100: Assessment of Antibacterial Finishes on Textile Materials (Staphylococcus aureus)", "format": "cell-based, ATCC 6538", "text": "(§1) A dry bactericidal wipe comprising was formed using 100% 1.5 denier Visocel® rayon fibers 38-mm in length, available from SNIACE of Torrelavega, Cantabria, Spain. A binder composition containing 5% of an acrylic binder, ST 954, available from Rohm and Hass Chemicals LLC of Charlotte, N.C., U.S.A. and 95% water was applied first using foam application at the first application at a level of about 10.6 grams per square yard, heating using steam or oil heated cans for about 45 seconds at a temperature of about 275° Fahrenheit. A second application of the binder/bactericidal composition containing 5% of the ST 954 acrylic binder, 1% tetradecylbenzyldimethyl ammonium chloride, and 94% water was applied by padding at a level of about 1.2 grams per square yard. The web is then heated in the same manner as above. The wipe has thickness of about 11 mils measured according to ASTM D 1777 and a basis weight of 37.8 g/yd^2, measured according to ASTM D 3776. A sample was prepared for bactericidal testing according to AATCC Test Method 100: Assessment of Antibacterial Finishes on Textile Materials.\n(§2) Another aspect of the present invention is the discovery of a new use for a certain bactericidal agent, namely the tetradecylbenzyldimethyl ammonium chloride. As will be appreciated by those skilled in the art, there are various methods to assess the effectiveness of a bactericidal agent. The discovery here is that this particular bactericidal agent provides a greater than 90%, preferably greater than 95%, and more preferably greater than 99% reduction in bacterium, including methicillin resistant Staphylococcus aureus (MRSA or Mursa), Staphylococcus aureus, Klebsiella pneumoniae, or combinations thereof. One method for determining the reduction of such organisms is American Association of Textile Chemists and Colorists (AATCC) Test Method 100, using American Type Culture Collection (ATCC) reference organisms ATCC 33591, methicillin resistant Staphylococcus aureus (MRSA), ATCC 6538, Staphylococcus aureus, and ATCC 4352, Klebsiela pneumoniae. […]"}, "[1]": {"test_system": "methicillin resistant Staphylococcus aureus (MRSA)", "test": "AATCC Test Method 100: Assessment of Antibacterial Finishes on Textile Materials (MRSA)", "format": "cell-based", "text": "as §1, §2"}, "Klebsiella pneumoniae": {"test_system": "Klebsiella pneumoniae", "test": "AATCC Test Method 100: Assessment of Antibacterial Finishes on Textile Materials (Klebsiella pneumoniae)", "format": "cell-based, ATCC 4352", "text": "as §1, §2"}, "[2]": {"details": "listed as tetradecyl benzyl dimethyl ammonium chloride"}, "[3]": {"details": "listed as tetradecyldimethylbenzyl ammonium chloride"}},
  "note": "Read-outs that look alike come from different tables or passages of the source.",
  "data": [
    {"smiles": "CCCCCCCCCCCCCC[N+](C)(C)Cc1ccccc1.[Cl-]", "note": "[tetradecylbenzyldimethyl ammonium chloride]", "values": [
      {"measurement": "reduction in Staphylococcus aureus bacterium", "setting": "Staphylococcus aureus", "result": "greater than 90%"},
      {"measurement": "reduction in Staphylococcus aureus bacterium", "setting": "Staphylococcus aureus; [2]", "result": "greater than 90%"},
      {"measurement": "reduction in Staphylococcus aureus bacterium", "setting": "Staphylococcus aureus; [3]", "result": "more than 99%"},
      {"measurement": "reduction in methicillin resistant Staphylococcus aureus (MRSA)", "setting": "[1]", "result": "greater than 90%"},
      {"measurement": "reduction in methicillin resistant Staphylococcus aureus (MRSA)", "setting": "[1]; [2]", "result": "greater than 90%"},
      {"measurement": "reduction in methicillin resistant Staphylococcus aureus (MRSA)", "setting": "[1]; [3]", "result": "more than 99%"},
      {"measurement": "reduction in the Klebsiella pneumoniae bacterium", "setting": "Klebsiella pneumoniae", "result": "greater than 90%"},
      {"measurement": "reduction in the Klebsiella pneumoniae bacterium", "setting": "Klebsiella pneumoniae; [2]", "result": "greater than 90%"},
      {"measurement": "reduction in the Klebsiella pneumoniae bacterium", "setting": "Klebsiella pneumoniae; [3]", "result": "more than 99%"}
    ]}
  ]
}
